From ChEMBL document CHEMBL1201862, “PubChem BioAssay data set” (2004) come the findings set out here.

What all share (assay): NCI-60 cell line screen, 48 h
Experiment [1] has as its system NCI-H460.
Experiment [2] concerns UACC-257.
Experiment [3] relates to SK-OV-3.
Experiment [4] has as its system NCI/ADR-RES.
Experiment [5] concerns NCI-H226.
Experiment [6] has as its system OVCAR-8.
Experiment [7] deals with OVCAR-5.
The test system of experiment [8] is MDA-MB-435.
Experiment [9] concerns HL-60.
The subject of experiment [10] is COLO 205.
Experiment [11] deals with SW-620.
The subject of experiment [12] is RXF 393.
Experiment [13] concerns EKVX.
Experiment [14] concerns SK-MEL-2.
The test system of experiment [15] is SK-MEL-28.
For experiment [16], the system named is MDA-N.
The test system of experiment [17] is HCT-116.
The test system of experiment [18] is ACHN.
Experiment [19] deals with HCC 2998.

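96-well plates; 48 h exposure; 5 concentrations. Endpoints by linear interpolation between flanking doses. Not reached: highest tested concentration assigned. Here, GI50 denotes the concentration required for 50% inhibition of growth.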 Activity calls are given as the source filed them. No stated cut-off is given here; in the data, active = GI50 up to about 1.1 µM and inactive = higher.

Take `COC(=O)[C@@H]1c2c(oc3cc(CO)cc(O)c3c2=O)C=C[C@H]1O`: the GI50 in [1] is 18.6 µM (inactive); in experiment [2], 8.85 µM (inactive); in experiment [3] it was 20.5 µM (inactive); in experiment [4] it was 17.9 µM (inactive); in experiment [5], 25.8 µM (inactive); in experiment [6], 5.56 µM (inactive). Also, the GI50 in [7] is 9.51 µM (inactive); in [8] it was 4.15 µM (inactive); in [9], 2.25 µM (inactive); in experiment [10] it was 5.5 µM (inactive); in experiment [11], 3.11 µM (inactive); in experiment [12] it was 2.8 µM (inactive). The GI50 is 13.3 µM (inactive) in experiment [13]; 15.2 µM (inactive) in [14]; 4.16 µM (inactive) in experiment [15]; 4.59 µM (inactive) in [16]; 2.3 µM (inactive) in experiment [17].
In the case of `C=C1CC(COc2ccc3c(C)c(C)c(=O)oc3c2C)(c2ccccc2)OC1=O` (stereo not drawn), the GI50 in experiment [1] is 6.01 µM (inactive); in [2] it was 0.531 µM (active); in experiment [3] it was 3.28 µM (inactive); in experiment [4], 2.7 µM (inactive); in experiment [18] it was 3.51 µM (inactive); in experiment [5], 2.27 µM (inactive). Besides, the GI50 in [6] is 1.72 µM (inactive); in [7], 9.02 µM (inactive); in [8] it was 2.7 µM (inactive); in experiment [9], 0.711 µM (active); in experiment [10], 1.6 µM (inactive); in [11], 1.22 µM (inactive). Further, the GI50 in experiment [13] was 7.55 µM (inactive); in experiment [14] it was 2.02 µM (inactive); in [15], 2.07 µM (inactive); in experiment [16], 1.87 µM (inactive); in experiment [19], 2.48 µM (inactive); in experiment [17], 1.41 µM (inactive).
On to `CC(=O)O[C@H]1C[C@H]2[C@@H](OC(C)=O)/C=C3\C[C@](C)(C(=O)[C@H](O)C(=C1C)C2(C)C)[C@@H](O)C[C@@H]3OC(=O)[C@H](O)[C@H](c1ccccc1)N(C)C`, for which the GI50 in experiment [1], in experiment [2], in experiment [3], in experiment [4], in experiment [18] and in [5] was > 100 µM (inactive) throughout. The GI50 in [6], in [7], in experiment [8], in [9], in [10] and in experiment [11] was > 100 µM (inactive) in each case. Moreover, the GI50 in [12], in experiment [13], in [15], in experiment [16] and in experiment [17] was > 100 µM (inactive) each time.
As to `Clc1ccc(-c2ccc(-c3nn4c(CNc5ccccc5)nnc4s3)o2)c(Cl)c1`, the GI50 in experiment [1] was 85.9 µM (inactive); in experiment [2], 53.1 µM (inactive); in experiment [3], > 100 µM (inactive); in experiment [4], 81.7 µM (inactive); in [18], > 100 µM (inactive); in [5], 97.3 µM (inactive). The GI50 in [6] is 68.7 µM (inactive); in experiment [7], > 100 µM (inactive); in [8], 58.1 µM (inactive); in [9], 44.3 µM (inactive); in experiment [10], 28 µM (inactive); in experiment [11], > 100 µM (inactive). Further, the GI50 was 33.5 µM (inactive) in experiment [12]; 41.5 µM (inactive) in experiment [13]; 90.4 µM (inactive) in experiment [14]; > 100 µM (inactive) in experiment [15]; 45.1 µM (inactive) in experiment [16]; 43.6 µM (inactive) in [17].
For `CCOC(=O)CO/N=C\C1=CC(=O)C2CC1C2(C)C` (stereo not drawn), the GI50 in experiment [2], in experiment [4], in experiment [18], in experiment [5], in [6] and in [7] was > 100 µM (inactive) each time. In addition, the GI50 in experiment [8], in experiment [9], in experiment [10], in experiment [11], in experiment [12] and in [13] was > 100 µM (inactive) each time. The GI50 in experiment [14], in experiment [15], in experiment [16] and in [17] was > 100 µM (inactive) in each case.
As for `Cc1cccc(/C=N/NC(=S)NCCc2ccccn2)n1`, the GI50 in [1] is 14.9 µM (inactive); in experiment [2] it was 33.8 µM (inactive); in experiment [3], 14.1 µM (inactive); in experiment [4], 31.8 µM (inactive); in experiment [18], 13.3 µM (inactive); in experiment [5] it was 16.1 µM (inactive). Besides, the GI50 in experiment [6] is 27.9 µM (inactive); in experiment [7] it was 46.7 µM (inactive); in [8], 27.4 µM (inactive); in [9], 15.6 µM (inactive); in experiment [10], 31.4 µM (inactive); in [11], 42.5 µM (inactive). Further, the GI50 is 38.2 µM (inactive) in experiment [13]; 31.2 µM (inactive) in [14]; 56.1 µM (inactive) in experiment [15]; 60.8 µM (inactive) in [16]; 42.2 µM (inactive) in experiment [19]; 31.8 µM (inactive) in [17].
With `COc1ccc2oc(=O)c(CC=C(C)C)c(O)c2c1C`, the GI50 in experiment [1], in experiment [2], in experiment [3], in experiment [4], in experiment [18] and in experiment [5] was > 100 µM (inactive) each time. Further, the GI50 in experiment [6], in [7], in experiment [8], in experiment [9], in [10] and in experiment [11] was > 100 µM (inactive) each time. For the same compound, the GI50 in [13], in experiment [14], in experiment [15], in experiment [16], in experiment [19] and in experiment [17] was > 100 µM (inactive) throughout.
With `C/C(=N\[N+](C)(C)C)c1ccc(C)c(C)c1`, the GI50 in [1] was 29.4 µM (inactive); in [2], 0.752 µM (active); in experiment [3], 77.6 µM (inactive); in experiment [4], > 10 µM (inactive); in [18], > 10 µM (inactive); in [6] it was 55.1 µM (inactive). Also, the GI50 in [7] is 42.4 µM (inactive); in [8], 96.4 µM (inactive); in [9] it was 82.2 µM (inactive); in experiment [10], 14.6 µM (inactive); in [11] it was 51.3 µM (inactive); in experiment [12], 62.8 µM (inactive). Besides, the GI50 is 7.5 µM (inactive) in experiment [13]; > 100 µM (inactive) in experiment [14]; > 10 µM (inactive) in experiment [15]; 45.8 µM (inactive) in experiment [16]; > 10 µM (inactive) in experiment [19]; 76.9 µM (inactive) in [17].
Consider `Cc1ccc(N2C(=O)C(O)=C(C(=O)C(C)(C)C)C2c2ccc([N+](=O)[O-])cc2)cc1` (stereo not drawn), for which the GI50 in experiment [1] was 9.27 µM (inactive); in [2] it was 15.8 µM (inactive); in [3], 20.8 µM (inactive); in experiment [4], 19.5 µM (inactive); in [18] it was 16.6 µM (inactive); in [5], 19.1 µM (inactive). Besides, the GI50 is 18.9 µM (inactive) in experiment [6]; 49.2 µM (inactive) in experiment [7]; 17.4 µM (inactive) in experiment [8]; 12.3 µM (inactive) in [9]; 15.7 µM (inactive) in experiment [10]; 26.9 µM (inactive) in [13]. Also, the GI50 is 24 µM (inactive) in [14]; 21.5 µM (inactive) in experiment [15]; 26 µM (inactive) in [16]; 17.7 µM (inactive) in experiment [19]; 16 µM (inactive) in experiment [17].
Consider `OCC12C3C4C5C3C1C5C42` (stereo not drawn), for which the GI50 in experiment [1], in [2], in experiment [3], in experiment [4], in experiment [18] and in [5] was > 100 µM (inactive) throughout. Also, the GI50 in [6], in [7], in experiment [8], in [9], in experiment [10] and in experiment [11] was > 100 µM (inactive) throughout. In addition, the GI50 in experiment [12], in experiment [13], in [14], in experiment [15], in [16] and in experiment [17] was > 100 µM (inactive) throughout.
With `O=C(CCN1CCCC1)Nc1ccc2sc3ccccc3c(=O)c2n1`, the GI50 in [1] is > 10 µM (inactive); in experiment [2], 12.2 µM (inactive); in [3] it was 7.23 µM (inactive); in experiment [4] it was 13.3 µM (inactive); in experiment [18] it was 11.5 µM (inactive); in [5] it was 13.8 µM (inactive). Also, the GI50 in [6] was 11.4 µM (inactive); in experiment [7], 12.9 µM (inactive); in [8], 12.7 µM (inactive); in experiment [9], 10.3 µM (inactive); in experiment [10], 11.1 µM (inactive); in [11], 12.4 µM (inactive). Moreover, the GI50 in experiment [13] is 12.4 µM (inactive); in experiment [14], 13.3 µM (inactive); in experiment [15], 14.3 µM (inactive); in [16], 13.4 µM (inactive); in experiment [19], 12.3 µM (inactive); in experiment [17], 11.5 µM (inactive).
